Source: patent publication US8080668B2, “Thiazoles derivatives as AMPK activator” (Dr. Reddy's Laboratories Limited, priority 2005, dated 2011)

What was measured:
AMPK [1] = assay: AMPK activation potential, cell based ELISA with p-AMPK specific antibody, L6 skeletal muscle cells; settings: 10 μM compound, 24 hours, normalized to metformin at 2 mM = 100%
Protocol: (§1) The AMPK activation potential percentages in this specification are calculated with respect to the already known AMPK activator metformin. The percentages are obtained by normalizing the values obtained at concentrations in the range of 2 μM to 10 μM with that of metformin by considering the values obtained for metformin at 2 mM concentrations as 100%. However, the AMPK activation potential percentages can also be calculated with respect to other known AMPK activators also.
(§2) AMPK activation potential of the compounds of formula (I) was evaluated using a cell based ELISA approach. L6 muscle skeletal muscle and Hep G2 hepatoma liver cells were cultured for 48 hours prior to drug addition at various concentrations. Twenty four hours later, the cells were fixed and the ELISA plate developed following standard protocol using p-AMPK specific antibody.
(§3) Various cell lines such as HepG2 and L6 were revived from glycerol stocks (ATCC). The cells were maintained in a T 75 culture flask-containing medium (DMEM +10% fetal calf serum). On reaching a confluence of 70% to 80%, the cells were seeded in a 96 well plate at a density of 10×10^3 cells per well in DMEM +10% FCS medium. The plates were then incubated at 37° C. with 5% CO2 for 48 hours. Various concentrations of drugs were prepared in DMSO and diluted to required concentration with the medium and incubated at 37° C. with 5% CO2 for 24 hours. Cells were fixed with 4% formaldehyde in PBS for 30 minutes at 25-35° C. and washed three times with PBS containing 0.1% Triton X-100. Endogenous peroxidase was quenched with 0.6% H2O2 in PBS-T for 30 minutes and washed three times in PBS-T. The cells were then blocked with 10% FCS in PBS-T for 1hour. The cells were incubated for 8-12 hours with various concentrations of primary antibody in PBS-T containing 5% BSA at 4° C., followed by washing three times with PBS-T for 5 minutes and incubating with a secondary antibody (HRP conjugated 1:500 in PBS-T with 5% BSA for 1 hour at 25-35° C. The cells were washed three times with PBS-T for 5 minutes and twice with PBS and incubated with 100 μl TMB/H2O2 color developing solution for 15 minutes. The reaction was stopped with 50 μl of 1M H2SO4. The plate was then read at 460 nm using ELISA plate reader.
(§4) AMPK activation percentages for various compounds are given in the table below (AMPK activation potential percentages are obtained by normalizing the values obtained at 10 μM concentration with that of metformin by considering the values obtained for metformin at 2 mM concentrations as 100%).

AMPK [2] = assay: AMPK activation potential, cell based ELISA with p-AMPK specific antibody, Hep G2 hepatoma liver cells; settings: 10 μM compound, 24 hours; normalized to metformin at 2 mM = 100%; HepG2 cells
Protocol: as §1, §2, §3, §4

Compound | AMPK % activation (at 10 μM) L6 skeletal muscle cells (AMPK [1]) [%] | AMPK % activation (at 10 μM) HepG-2 hepatoma liver cells (AMPK [2]) [%] | melting point [°C]
O=C(O)Cc1csc(Nc2ccc(F)cc2)n1 [Example 1-a, [2-(4-Fluoro-phenylamino)-thiazol-4-yl]-acetic acid] | 81 | 97.9 | –
O=C(O)Cc1csc(Nc2ccc(Cl)cc2)n1 [Example 1-b, [2-(4-Chloro-phenylamino)-thiazol-4-yl]-acetic acid] | 102.63 | 87.11 | –
Cc1ccc(Nc2nc(CC(=O)O)cs2)cc1 [Example 1-d, (2-p-Tolylamino-thiazol-4-yl)-acetic acid] | 99.55 | 97.11 | –
O=C(O)Cc1csc(Nc2ccc(OC(F)(F)F)cc2)n1 [Example 1-e, [2-(4-Trifluoromethoxy-phenylamino)-thiazol-4-yl]-acetic acid] | 94.09 | 100.29 | –
O=C(O)Cc1csc(Nc2ccc(OCc3ccccc3)cc2)n1 [Example 1-f, [2-(4-Benzyloxy-phenylamino)-thiazol-4-yl]-acetic acid] | 88.04 | 87.76 | 116 to 118
O=C(O)Cc1csc(Nc2ccc(N3CCOCC3)cc2)n1 [Example 1-i, [2-(4-Morpholin-4-yl-phenylamino)-thiazol-4-yl]-acetic acid] | 109.09 | 69.71 | 198 to 199
O=C(O)Cc1csc(Nc2ccc(Sc3ccc(Cl)cc3)cc2)n1 [Example 1-j, {2-[4-(4-Chloro-phenylsulfanyl)-phenylamino]-thiazol-4-yl}-acetic acid] | 97.09 | 97.56 | 191 to 192
O=C(O)Cc1csc(Nc2ccc(Oc3ccc(Cl)cc3)cc2)n1 [Example 1-k, {2-[4-(4-Chloro-phenoxy)-phenylamino]-thiazol-4-yl}-acetic acid] | 96.19 | 97.56 | 192 to 193
O=C(O)Cc1csc(Nc2ccc(-c3csc(-c4ccc(C(F)(F)F)cc4)n3)cc2)n1 [Example 1-l, (2-{4-[2-(4-Trifluoromethyl-phenyl)-thiazol-4-yl]-phenylamino}-thiazol-4-yl)-acetic acid] | 104.37 | 85.27 | 171 to 174
O=C(O)Cc1csc(Nc2ccc(-c3csc(-c4ccccc4)n3)cc2)n1 [Example 1-m, {2-[4-(2-Phenyl-thiazol-4-yl)-phenylamino]-thiazol-4-yl}-acetic acid] | – | – | 148 to 150
Cc1nc(-c2ccc(Nc3nc(CC(=O)O)cs3)cc2)cs1 [Example 1-n, {2-[4-(2-Methyl-thiazol-4-yl)-phenylamino]-thiazol-4-yl}-acetic acid] | 83.62 | 98.42 | 153 to 156
O=C(O)Cc1csc(Nc2ccc(-c3ccccc3)cc2)n1 [Example 1-o, [2-(Biphenyl-4-ylamino)-thiazol-4-yl]-acetic acid] | – | – | 158 to 159
CCCCc1ccc(Nc2nc(CC(=O)O)cs2)cc1 [Example 1-p, [2-(4-Butyl-phenylamino)-thiazol-4-yl]-acetic acid] | 102.26 | 75.77 | –
O=C(O)Cc1csc(Nc2ccc(O)cc2)n1 [Example 1-s, [2-(4-Hydroxy-phenylamino)-thiazol-4-yl]-acetic acid] | 92.35 | 86.08 | –
O=C(O)c1csc(Nc2ccc(Cl)cc2)n1 [Example 2-a, 2-(4-Chloro-phenylamino)-thiazole-4-carboxylic acid] | 94.90 | 97.26 | –
Cc1nc(-c2ccc(Nc3nc(C(=O)O)cs3)cc2)cs1 [Example 2-b, 2-[4-(2-Methyl-thiazol-4-yl)-phenylamino]-thiazole-4-carboxylic acid] | – | – | 290 to 292
O=C(O)c1csc(Nc2ccc(-c3csc(-c4ccccc4)n3)cc2)n1 [Example 2-c, 2-[4-(2-Phenyl-thiazol-4-yl)-phenylamino]-thiazole-4-carboxylic acid] | 102.19 | 96.35 | 283 to 286
O=C(O)c1csc(Nc2ccc(-c3csc(-c4ccc(C(F)(F)F)cc4)n3)cc2)n1 [Example 2-d, 2-{4-[2-(4-Trifluoromethyl-phenyl)-thiazol-4-yl]-phenylamino}-thiazole-4-carboxylic acid] | 109.70 | 83.89 | –
O=C(O)CCc1csc(Nc2ccc(C(F)(F)F)cc2)n1 [Example 3-e, 3-[2-(4-Trifluoromethyl-phenylamino)-thiazol-4-yl]-propionic acid] | 94.72 | 110.47 | –
